Here are results for two compounds from paper PMC9025560, “A Comparison of Evans Blue and 4-(p-Iodophenyl)butyryl Albumin Binding Moieties on an Integrin αvβ6 Binding Peptide” (Pharmaceutics, 2022).

Like-named read-outs stand apart in the source and are kept apart here.

The nature of this series: Blocking biodistribution with pre-administered metal free peptide. The format is in vivo, mice. As to conditions: female, athymic nu/nu-nude, mouse, intravenous, total radioactivity, 4 h p.i., metal free peptide 10 min before, n = 1. As to the method:
For blocking studies, the metal free peptides 1 or 2 (~220 nmol, 1.3 mg in 100 μL PBS), respectively, were injected i.v. (n = 1/peptide) as described above 10 min prior to the injection of matching radiolabeled [^64Cu]1 or [^64Cu]2 (3.7–5.55 MBq, 100 μL PBS). After a conscious 4 h uptake period, the animals were anesthetized, sacrificed, tissues rapidly collected, and analyzed as described above. Decay-corrected radioactivity concentrations are expressed as a percentage of injected dose per gram of tissue (% ID/g) (Figure S23).

The mark [1] stands for this setting: BxPC-3 tumor, read-out: BxPC-3 Tumor uptake, blocked.
Where [2] appears, read: blood, read-out: Blood uptake, blocked.
Setting [3] is: bone, read-out: Bone uptake, blocked.
Setting [4] is: brain, read-out: Brain uptake, blocked.
The mark [5] stands for this setting: gall bladder, read-out: Gall Bladder uptake, blocked.
Setting [6] is: heart, read-out: Heart uptake, blocked.
Setting [7] is: kidneys, read-out: Kidneys uptake, blocked.
Where [8] appears, read: large intestines, read-out: Lg. Intestines uptake, blocked.
Setting [9] is: liver, read-out: Liver uptake, blocked.
Where [10] appears, read: lung, read-out: Lung uptake, blocked.
Where [11] appears, read: muscle, read-out: Muscle uptake, blocked.
Setting [12] is: pancreas, read-out: Pancreas uptake, blocked.
The mark [13] stands for this setting: skin, read-out: Skin uptake, blocked.
Where [14] appears, read: small intestines, read-out: Sm. Intestines uptake, blocked.
Setting [15] is: stomach, read-out: Stomach uptake, blocked.

Take `Cc1cc(-c2ccc(NC(=O)CCC(=O)NCCCC[C@H](NC(=O)CN3CCN(CC(=O)O)CCN(CC(=O)O)CCN(CC(=O)O)CC3)C(=O)NCCOCCOCCOCCOCCOCCOCCOCCOCCOCCOCCOCCOCCOCCOCCOCCOCCOCCOCCOCCOCCOCCOCCOCCOCCOCCOCCOCCOCCC(=O)N[C@@H](CC(N)=O)C(=O)N[C@@H](C)C(=O)N[C@H](C(=O)N3CCC[C@H]3C(=O)N[C@@H](CC(N)=O)C(=O)N[C@@H](CC(C)C)C(=O)N[C@@H](CCCNC(=N)N)C(=O)NCC(=O)N[C@@H](CC(=O)O)C(=O)N[C@@H](CC(C)C)C(=O)N[C@@H](CCC(N)=O)C(=O)N[C@H](C(=O)N[C@@H](CC(C)C)C(=O)N[C@@H](C)C(=O)N[C@@H](CCC(N)=O)C(=O)N[C@@H](CCCNC(=N)N)C(=O)N[C@H](C(=O)N[C@@H](C)C(=O)N[C@@H](CCCNC(=N)N)C(=O)N[C@H](C(=O)NCCOCCOCCOCCOCCOCCOCCOCCOCCOCCOCCOCCOCCOCCOCCOCCOCCOCCOCCOCCOCCOCCOCCOCCOCCOCCOCCOCCOCCC(N)=O)[C@@H](C)O)C(C)C)C(C)C)C(C)C)c(C)c2)ccc1N=Nc1ccc2c(S(=O)(=O)O)cc(S(=O)(=O)O)c(N)c2c1O` [[^64Cu]1, [^64Cu]Cu DOTA-EB-αvβ6-BP, metal not drawn]: the tissue uptake at 4 h amounted to 2.91 %ID/g under setting [1]; 2.56 %ID/g under setting [2]; 0.43 %ID/g under setting [3]; 0.07 %ID/g under setting [4]; 1.96 %ID/g under setting [5]; 0.96 %ID/g under setting [6]. Moreover, the tissue uptake at 4 h reads like this: under setting [7], 71.6 %ID/g; under setting [8], 0.9 %ID/g; under setting [9], 1.92 %ID/g; under setting [10], 1.65 %ID/g; under setting [11], 0.41 %ID/g; under setting [12], 0.39 %ID/g. Besides, the tissue uptake at 4 h is, setting by setting: under setting [13], 1.12 %ID/g; under setting [14], 0.91 %ID/g; (spleen, read-out: Spleen uptake, blocked) 0.85 %ID/g; under setting [15], 0.72 %ID/g.

For `CC(C)C[C@H](NC(=O)[C@H](CC(=O)O)NC(=O)CNC(=O)[C@H](CCCNC(=N)N)NC(=O)[C@H](CC(C)C)NC(=O)[C@H](CC(N)=O)NC(=O)[C@@H]1CCCN1C(=O)[C@@H](NC(=O)[C@H](C)NC(=O)[C@H](CC(N)=O)NC(=O)CCOCCOCCOCCOCCOCCOCCOCCOCCOCCOCCOCCOCCOCCOCCOCCOCCOCCOCCOCCOCCOCCOCCOCCOCCOCCOCCOCCOCCNC(=O)[C@H](CCCCNC(=O)[C@H](CC(=O)O)NC(=O)CCCNC(=O)CCCc1ccc(I)cc1)NC(=O)CN1CCN(CC(=O)O)CCN(CC(=O)O)CCN(CC(=O)O)CC1)C(C)C)C(=O)N[C@@H](CCC(N)=O)C(=O)N[C@H](C(=O)N[C@@H](CC(C)C)C(=O)N[C@@H](C)C(=O)N[C@@H](CCC(N)=O)C(=O)N[C@@H](CCCNC(=N)N)C(=O)N[C@H](C(=O)N[C@@H](C)C(=O)N[C@@H](CCCNC(=N)N)C(=O)N[C@H](C(=O)NCCOCCOCCOCCOCCOCCOCCOCCOCCOCCOCCOCCOCCOCCOCCOCCOCCOCCOCCOCCOCCOCCOCCOCCOCCOCCOCCOCCOCCC(N)=O)[C@@H](C)O)C(C)C)C(C)C` [[^64Cu]2, [^64Cu]Cu DOTA-IP-αvβ6-BP, metal not drawn], the tissue uptake at 4 h under setting [1] was 2.89 %ID/g; the tissue uptake at 4 h under setting [2] is 3.98 %ID/g; the tissue uptake at 4 h under setting [3] worked out at 0.5 %ID/g; the tissue uptake at 4 h under setting [4] was determined as 0.09 %ID/g; the tissue uptake at 4 h under setting [5] amounted to 1.64 %ID/g; the tissue uptake at 4 h under setting [6] amounted to 1.31 %ID/g. The tissue uptake at 4 h under setting [7] stood at 16.8 %ID/g; the tissue uptake at 4 h under setting [8] was found to be 1.26 %ID/g; the tissue uptake at 4 h under setting [9] came out at 2.04 %ID/g; the tissue uptake at 4 h under setting [10] stood at 2.08 %ID/g; the tissue uptake at 4 h under setting [11] worked out at 0.5 %ID/g; the tissue uptake at 4 h under setting [12] came out at 0.76 %ID/g. Further, the tissue uptake at 4 h worked out at 1.26 %ID/g under setting [13], 1.18 %ID/g under setting [14] and 1.2 %ID/g under setting [15].
